From the NIST ThermoML archive (doi:10.1016/j.tca.2013.08.016)
Numbers after ± are expanded uncertainties.

How the values were obtained:
[1] = refractive index (Na D-line) (dimensionless); φn = volume fraction of the nth substance listed; details: 101 kPa, Liquid, Standard Abbe refractometry
[2] = refractive index (Na D-line) (dimensionless); details: 101.33 kPa, Liquid, Standard Abbe refractometry

CCCC[n+]1ccccc1.F[B-](F)(F)F [1-butylpyridinium tetrafluoroborate] + CCO
[1]
Details | refractive index
303.15 K, φ1 = 0.0806 | 1.36595 ± 0.00042
303.15 K, φ1 = 0.1412 | 1.37218 ± 0.00042
303.15 K, φ1 = 0.2622 | 1.3839 ± 0.00042
303.15 K, φ1 = 0.3554 | 1.39236 ± 0.00042
303.15 K, φ1 = 0.4323 | 1.39905 ± 0.00042
303.15 K, φ1 = 0.561 | 1.40993 ± 0.00043
303.15 K, φ1 = 0.6685 | 1.41861 ± 0.00043
303.15 K, φ1 = 0.7512 | 1.42527 ± 0.00044
303.15 K, φ1 = 0.8213 | 1.43076 ± 0.00044
303.15 K, φ1 = 0.8742 | 1.43497 ± 0.00044
303.15 K, φ1 = 0.9217 | 1.43861 ± 0.00044
303.15 K, φ1 = 0.9612 | 1.44158 ± 0.00045
303.15 K, φ1 = 1 | 1.44454 ± 0.00045
313.15 K, φ1 = 0.0802 | 1.36207 ± 0.00042
313.15 K, φ1 = 0.1405 | 1.36844 ± 0.00042
313.15 K, φ1 = 0.2611 | 1.38045 ± 0.00042
313.15 K, φ1 = 0.3541 | 1.389 ± 0.00042
313.15 K, φ1 = 0.4308 | 1.39575 ± 0.00042
313.15 K, φ1 = 0.5595 | 1.40676 ± 0.00043
313.15 K, φ1 = 0.6672 | 1.4156 ± 0.00043
313.15 K, φ1 = 0.7501 | 1.42236 ± 0.00044
313.15 K, φ1 = 0.8205 | 1.42796 ± 0.00044
313.15 K, φ1 = 0.8736 | 1.43225 ± 0.00044
313.15 K, φ1 = 0.9213 | 1.43596 ± 0.00044
313.15 K, φ1 = 0.961 | 1.43898 ± 0.00045
313.15 K, φ1 = 1 | 1.4419 ± 0.00045
323.15 K, φ1 = 0.0798 | 1.35794 ± 0.00042
323.15 K, φ1 = 0.1398 | 1.3646 ± 0.00042
323.15 K, φ1 = 0.26 | 1.37704 ± 0.00042
323.15 K, φ1 = 0.3528 | 1.38573 ± 0.00042
323.15 K, φ1 = 0.4294 | 1.39254 ± 0.00042
323.15 K, φ1 = 0.5581 | 1.40354 ± 0.00043
323.15 K, φ1 = 0.6659 | 1.41255 ± 0.00043
323.15 K, φ1 = 0.749 | 1.41938 ± 0.00044
323.15 K, φ1 = 0.8196 | 1.42508 ± 0.00044
323.15 K, φ1 = 0.8729 | 1.42947 ± 0.00044
323.15 K, φ1 = 0.9209 | 1.43328 ± 0.00044
323.15 K, φ1 = 0.9607 | 1.43633 ± 0.00045
323.15 K, φ1 = 1 | 1.43924 ± 0.00045

CCCC[n+]1ccccc1.F[B-](F)(F)F [1-butylpyridinium tetrafluoroborate] + CO
[1]
Details | refractive index
293.15 K, φ1 = 0.0747 | 1.33926 ± 0.0004
293.15 K, φ1 = 0.1041 | 1.34327 ± 0.0004
293.15 K, φ1 = 0.2013 | 1.35648 ± 0.00041
293.15 K, φ1 = 0.3315 | 1.37286 ± 0.00041
293.15 K, φ1 = 0.4125 | 1.38271 ± 0.00042
293.15 K, φ1 = 0.5222 | 1.39563 ± 0.00042
293.15 K, φ1 = 0.6527 | 1.41047 ± 0.00043
293.15 K, φ1 = 0.7475 | 1.42106 ± 0.00043
293.15 K, φ1 = 0.8152 | 1.42843 ± 0.00044
293.15 K, φ1 = 0.8666 | 1.43377 ± 0.00044
293.15 K, φ1 = 0.9113 | 1.43844 ± 0.00044
293.15 K, φ1 = 0.9687 | 1.44425 ± 0.00044
293.15 K, φ1 = 1 | 1.44719 ± 0.00045
303.15 K, φ1 = 0.0742 | 1.3354 ± 0.0004
303.15 K, φ1 = 0.1035 | 1.33949 ± 0.0004
303.15 K, φ1 = 0.2002 | 1.35293 ± 0.00041
303.15 K, φ1 = 0.3301 | 1.36955 ± 0.00041
303.15 K, φ1 = 0.411 | 1.37949 ± 0.00041
303.15 K, φ1 = 0.5206 | 1.39258 ± 0.00042
303.15 K, φ1 = 0.6513 | 1.40757 ± 0.00043
303.15 K, φ1 = 0.7463 | 1.41824 ± 0.00043
303.15 K, φ1 = 0.8142 | 1.42561 ± 0.00044
303.15 K, φ1 = 0.8658 | 1.43105 ± 0.00044
303.15 K, φ1 = 0.9108 | 1.43576 ± 0.00044
303.15 K, φ1 = 0.9685 | 1.4416 ± 0.00044
303.15 K, φ1 = 1 | 1.44454 ± 0.00045
313.15 K, φ1 = 0.0737 | 1.33144 ± 0.0004
313.15 K, φ1 = 0.1028 | 1.33587 ± 0.0004
313.15 K, φ1 = 0.1991 | 1.34941 ± 0.00041
313.15 K, φ1 = 0.3286 | 1.36646 ± 0.00041
313.15 K, φ1 = 0.4096 | 1.3765 ± 0.00041
313.15 K, φ1 = 0.5189 | 1.38958 ± 0.00042
313.15 K, φ1 = 0.6498 | 1.40471 ± 0.00043
313.15 K, φ1 = 0.745 | 1.41542 ± 0.00043
313.15 K, φ1 = 0.8132 | 1.42273 ± 0.00044
313.15 K, φ1 = 0.865 | 1.42832 ± 0.00044
313.15 K, φ1 = 0.9103 | 1.433 ± 0.00044
313.15 K, φ1 = 0.9683 | 1.43897 ± 0.00044
313.15 K, φ1 = 1 | 1.4419 ± 0.00045
323.15 K, φ1 = 0.0732 | 1.32837 ± 0.0004
323.15 K, φ1 = 0.1022 | 1.33278 ± 0.0004
323.15 K, φ1 = 0.1981 | 1.3469 ± 0.00041
323.15 K, φ1 = 0.3271 | 1.3641 ± 0.00041
323.15 K, φ1 = 0.408 | 1.37436 ± 0.00041
323.15 K, φ1 = 0.5172 | 1.38733 ± 0.00042
323.15 K, φ1 = 0.6482 | 1.40238 ± 0.00043
323.15 K, φ1 = 0.7438 | 1.41283 ± 0.00043
323.15 K, φ1 = 0.8122 | 1.42002 ± 0.00044
323.15 K, φ1 = 0.8642 | 1.42546 ± 0.00044
323.15 K, φ1 = 0.9097 | 1.43029 ± 0.00044
323.15 K, φ1 = 0.9681 | 1.43614 ± 0.00044
323.15 K, φ1 = 1 | 1.43924 ± 0.00045

CCO [ethanol]
[2]
Details | refractive index
293.15 K | 1.36144 ± 0.00041
303.15 K | 1.35702 ± 0.00041
313.15 K | 1.3527 ± 0.00041
323.15 K | 1.34837 ± 0.00041

CCO [ethanol] + CCCC[n+]1ccc(C)cc1.F[B-](F)(F)F
[1], φ2 = 0
Details | refractive index
293.15 K | 1.36144 ± 0.00041
303.15 K | 1.35702 ± 0.00041
313.15 K | 1.3527 ± 0.00041
323.15 K | 1.34837 ± 0.00041

CCO [ethanol] + CCCC[n+]1cccc(C)c1.F[B-](F)(F)F
[1], φ2 = 0
Details | refractive index
293.15 K | 1.36144 ± 0.00041
303.15 K | 1.35702 ± 0.00041
313.15 K | 1.3527 ± 0.00041
323.15 K | 1.34837 ± 0.00041

CCO [ethanol] + CCCC[n+]1ccccc1.F[B-](F)(F)F
[1], φ2 = 0
Details | refractive index
303.15 K | 1.35702 ± 0.00041
313.15 K | 1.3527 ± 0.00041
323.15 K | 1.34837 ± 0.00041

CO [methanol]
[2]
Details | refractive index
293.15 K | 1.32843 ± 0.0004
303.15 K | 1.32433 ± 0.0004
313.15 K | 1.32015 ± 0.0004
323.15 K | 1.3167 ± 0.0004

CO [methanol] + CCCC[n+]1ccc(C)cc1.F[B-](F)(F)F
[1], φ2 = 0
Details | refractive index
293.15 K | 1.32843 ± 0.0004
303.15 K | 1.32433 ± 0.0004
313.15 K | 1.32015 ± 0.0004
323.15 K | 1.3167 ± 0.0004

CO [methanol] + CCCC[n+]1cccc(C)c1.F[B-](F)(F)F
[1], φ2 = 0
Details | refractive index
293.15 K | 1.32843 ± 0.0004
303.15 K | 1.32433 ± 0.0004
313.15 K | 1.32015 ± 0.0004
323.15 K | 1.3167 ± 0.0004

CO [methanol] + CCCC[n+]1ccccc1.F[B-](F)(F)F
[1], φ2 = 0
Details | refractive index
293.15 K | 1.32843 ± 0.0004
303.15 K | 1.32433 ± 0.0004
313.15 K | 1.32015 ± 0.0004
323.15 K | 1.3167 ± 0.0004
